Test results reported in patent US20040110731A1, “Photodynamic therapy for the treatment of non-melanoma skin cancer” (priority 2002, published 2004).

Assays:
[1] = tested on: non-melanoma skin cancers; conditions: cited from earlier work
[2] = tested on: multiple non-melanoma skin tumors; assay: Verteporfin PDT in patients, visual assessment of treatment sites for clinical complete response (tumor free); assay type: in vivo, human; conditions: for Clinical Complete Response (percentage of treatment sites judged free of tumors): 14 mg/m^2 BPD-MA IV
Procedure: (§1) Visudyne^1 was diluted to 30 ml with 5% dextrose in water. This solution was then administered intravenously by a ten minute infusion to fifty-four patients having multiple non-melanoma skin tumors. The final concentration of BPD-MA administered was 14 mg per m^2 of body surface area. The body surface area was calculated by taking the square root of the […] of (height (cm)×weight (kg))÷3600. ^1 available from Movartis Opthalmics, Duluth, Ga. 30097, USA.
(§2) One to three hours after the start of drug infusion the patients either had their tumors treated with a light dose of 60 or 120 J/cm^2 (as comparative examples) or with a light dose of 180 J/cm^2 according to the invention. The light doses were all of red (688 nm) LED light with a fluence rate of 200 mW/cm^2. A total of 421 tumors were treated. 194 received 60 J/cm^2, 117 received 120 J/cm^2, and 110 received 180 J/cm^2.
Tumors were examined for clinical response after 3 months.
(§3) The efficacy of the treatment and the cosmetic outcome were assessed at 6 months and 24 months from the start of treatment. As a measure of efficacy, each treatment site was visually assessed by a physician to see if it was tumor free. The percentage of treatment sites that were judged to be free of tumors is shown in Table 1 (Clinical Complete Response). The treatment sites were also visually graded by the physician to assess the Cosmetic Outcome. Each tumor site was graded as an excellent, good, satisfactory, or less than satisfactory based on the color, profile, and texture of each treated site.

[3] = Verteporfin PDT in patients, physician visual grading of cosmetic outcome of treated sites (color, profile, texture); assay type: in vivo, human; conditions: 14 mg/m^2 BPD-MA IV
Procedure: as §1, §2, §3

[4] = 6 months, light dose 60 J/cm^2 (comparative), 688 nm
[5] = 6 months, light dose 120 J/cm^2 (comparative), 688 nm
[6] = 6 months, light dose 180 J/cm^2, 688 nm
[7] = 24 months, light dose 60 J/cm^2 (comparative), 688 nm
[8] = 24 months, light dose 120 J/cm^2 (comparative), 688 nm
[9] = 24 months, light dose 180 J/cm^2, 688 nm

## benzoporphyrin derivative monoacid A ring [Visudyne]
[1]; 60 J/cm^2
  Clinical response: relatively poor clinical response
[1]; 180 J/cm^2
  Cosmetic outcome: relatively poor cosmetic outcome
[1]; light fluence 120 J/cm^2
  Cosmetic results with tumor clearing: good to excellent
[2]; 3 months, tumors on six patients of the comparative 60 J/cm^2 group
  Clinical response of tumors: no response
[2]; [4]
  Clinical Complete Response (percentage of treatment sites judged free of tumors): 78.3%
[2]; [5]
  Clinical Complete Response (percentage of treatment sites judged free of tumors): 88.5%
[2]; [6]
  Clinical Complete Response (percentage of treatment sites judged free of tumors): 98.0%
[2]; [7]
  Clinical Complete Response (percentage of treatment sites judged free of tumors): 51.3%
[2]; [8]
  Clinical Complete Response (percentage of treatment sites judged free of tumors): 78.6%
[2]; [9]
  Clinical Complete Response (percentage of treatment sites judged free of tumors): 95.4%
[3]; [4]
  Tumor Cosmetic Outcome (percentage of treatment sites judged satisfactory or better): 90.6%
[3]; [5]
  Tumor Cosmetic Outcome (percentage of treatment sites judged satisfactory or better): 87.5%
[3]; [6]
  Tumor Cosmetic Outcome (percentage of treatment sites judged satisfactory or better): 64.8%
[3]; [7]
  Tumor Cosmetic Outcome (percentage of treatment sites judged satisfactory or better): 91.8%
[3]; [8]
  Tumor Cosmetic Outcome (percentage of treatment sites judged satisfactory or better): 76.4%
[3]; [9]
  Tumor Cosmetic Outcome (percentage of treatment sites judged satisfactory or better): 85.5%
